Experiments:
[1] = tested on: HCV replicon (strain 1b) in HUH-7 cells; assay: HCV replicon FRET assay; type: cell-based; conditions: Hepatitis C virus, Huh-7, read-out: EC50 in the replicon FRET assay
Description: An HCV replicon whole cell system was established as described by Lohmann V, Korner F, Koch J, Herian U, Theilmann L, Bartenschlager R., Science 285(5424): 110-3 (1999). This system enabled us to evaluate the effects of our HCV Protease compounds on HCV RNA replication. Briefly, using the HCV strain 1b sequence described in the Lohmann paper (Assession number: AJ238799), an HCV cDNA was synthesized by Operon Technologies, Inc. (Alameda, Calif.), and the full-length replicon was then assembled in plasmid pGem9zf(+) (Promega, Madison, Wis.) using standard molecular biology techniques. The replicon consists of (i) the HCV 5′ UTR fused to the first 12 amino acids of the capsid protein, (ii) the neomycin phosphotransferase gene (neo), (iii) the IRES from encephalomyocarditis virus (EMCV), and (iv) HCV NS3 to NS5B genes and the HCV 3′ UTR. Plasmid DNAs were linearized with ScaI and RNA transcripts were synthesized in vitro using the T7 MegaScript transcription kit (Ambion, Austin, Tex.) according to manufacturer's directions. In vitro transcripts of the cDNA were transfected into the human hepatoma cell line, HUH-7. […] Resulting cell lines were characterized for positive and negative strand RNA production and protein production over time.
The HCV replicon FRET assay was developed to monitor the inhibitory effects of compounds described in the disclosure on HCV viral replication. HUH-7 cells, constitutively expressing the HCV replicon, were grown in Dulbecco's Modified Eagle Media (DMEM) (Gibco-BRL) containing 10% Fetal calf serum (FCS) (Sigma) and 1 mg/ml G418 (Gibco-BRL). Cells were seeded the night before (1.5×10^4 cells/well) in 96-well tissue-culture sterile plates. Compound and no compound controls were prepared in DMEM containing 4% FCS, 1:100 Penicillin/Streptomysin (Gibco-BRL), 1:100 L-glutamine and 5% DMSO in the dilution plate (0.5% DMSO final concentration in the assay). Compound/DMSO mixes were added to the cells and incubated for 4 days at 37° C. After 4 days, cells were first assessed for cytotoxicity using alamar Blue (Trek Diagnotstic Systems) for a CC50 reading. The toxicity of compound (CC50) was determined by adding 1/10th volume of alamar Blue to the media incubating the cells. After 4 h, the fluorescence signal from each well was read, with an excitation wavelength at 530 nm and an emission wavelength of 580 nm, using the Cytofluor Series 4000 (Perspective Biosystems). Plates were then rinsed thoroughly with Phosphate-Buffered Saline (PBS) (3 times 150 μl). The cells were lysed with 25 μl of a lysis assay reagent containing an HCV protease substrate (5× cell Luciferase cell culture lysis reagent (Promega #E153A) diluted to 1× with distilled water, NaCl added to 150 mM final, the FRET peptide substrate (as described for the enzyme assay above) diluted to 10 μM final from a 2 mM stock in 100% DMSO. The plate was then placed into the Cytofluor 4000 instrument which had been set to 340 nm excitation/490 nm emission, automatic mode for 21 cycles and the plate read in a kinetic mode. EC50 determinations were carried out as described for the IC50 determinations.

[2] = tested on: human pancreatic chymotrypsin; assay: Specificity assay, chymotrypsin; type: biochemical; conditions: read-out: Chymotrypsin activity in the specificity assays
Description: (§1) The specificities of compounds of the present disclosure were determined against a variety of serine proteases: human neutrophil elastase (HNE), porcine pancreatic elastase (PPE) and human pancreatic chymotrypsin and one cysteine protease: human liver cathepsin B. In all cases a 96-well plate format protocol using a fluorometric Amino-Methyl-Coumarin (AMC) substrate specific for each enzyme was used as described previously (PCT Patent Application No. WO 00/09543) with some modifications to the serine protease assays. All enzymes were purchased from Sigma, EMDbiosciences while the substrates were from Bachem, Sigma and EMDbiosciences.
(§2) Compound concentrations varied from 100 to 0.4 μM depending on their potency. The enzyme assays were each initiated by addition of substrate to enzyme-inhibitor pre-incubated for 10 min at room temperature and hydrolysis to 15% conversion as measured on cytofluor.
50 mM Tris(hydroxymethyl)aminomethane hydrochloride (Tris-HCl) pH 8, 0.5 M Sodium Sulfate (Na2SO4), 50 mM NaCl, 0.1 mM EDTA, 3% DMSO, 0.01% Tween-20 with 5 μM LLVY-AMC and 1 nM Chymotrypsin.
(§3) The percentage of inhibition was calculated using the formula: [1−((UVinh−UVblank)/(UVctl−UVblank))]×100
(§4) A non-linear curve fit was applied to the inhibition-concentration data, and the 50% effective concentration (IC50) was calculated by the use of Excel XLfit software.

[3] = tested on: HCV replicon (Renilla luciferase reporter) in HUH-7 cells; assay: HCV replicon luciferase reporter assay; type: cell-based; conditions: Huh-7, read-out: EC50 in the replicon Luciferase assay
Description: An HCV replicon whole cell system was established as described by Lohmann V, Korner F, Koch J, Herian U, Theilmann L, Bartenschlager R., Science 285(5424): 110-3 (1999). This system enabled us to evaluate the effects of our HCV Protease compounds on HCV RNA replication. Briefly, using the HCV strain 1b sequence described in the Lohmann paper (Assession number: AJ238799), an HCV cDNA was synthesized by Operon Technologies, Inc. (Alameda, Calif.), and the full-length replicon was then assembled in plasmid pGem9zf(+) (Promega, Madison, Wis.) using standard molecular biology techniques. The replicon consists of (i) the HCV 5′ UTR fused to the first 12 amino acids of the capsid protein, (ii) the neomycin phosphotransferase gene (neo), (iii) the IRES from encephalomyocarditis virus (EMCV), and (iv) HCV NS3 to NS5B genes and the HCV 3′ UTR. […]
As a secondary assay, EC50 determinations from the replicon FRET assay were confirmed in a replicon luciferase reporter assay. […] Following 4 days in a 37° C./5% CO2 incubator, cells were analyzed for Renilla Luciferase activity using the Promega Dual-Glo Luciferase Assay System. […] Plates were read on a Packard TopCount NXT using a luminescence program.
The percentage inhibition was calculated using the formula below: […]
The values were graphed and analyzed using XLfit to obtain the EC50 value.

human liver cathepsin B = target: T1, human liver cathepsin B (Homo sapiens, UniProt P07858); assay: Specificity assay, cathepsin B; type: biochemical; conditions: read-out: Cathepsin B activity in the specificity assays
T1 construct: purchased Sigma, EMDbiosciences; host or cells: human liver
Description: as §1, §2
100 mM NaOAC (Sodium Acetate) pH 5.5, 3% DMSO, 1 mM TCEP (Tris(2-carboxyethyl)phosphine hydrochloride), 5 nM Cathepsin B (enzyme stock activated in buffer containing 20 mM TCEP before use), and 2 μM Z-FR-AMC diluted in H2O.
as §3, §4

C=C[C@@H]1C[C@]1(NC(=O)[C@@H]1C[C@@](O)(c2ccc(-c3ccccc3)cc2)CN1C(=O)[C@@H](NC(=O)OC(C)(C)C)C(C)(C)C)C(=O)NS(=O)(=O)C1CC1 [Compound 3]
EC50 [1]: 11 nM | IC50 [2]: 75000 nM | EC50 [3]: 1.4 nM | IC50 (human liver cathepsin B): > 100000 nM

— patent publication US7888464B2, “Hepatitis C virus inhibitors” (Bristol-Myers Squibb Company, priority 2006, dated 2011)
